Laboratory results as given in patent US20150141386A1, “USE OF VITAMIN K TO DECREASE ALLOGRAFT FAILURE AND PATIENT MORTALITY AFTER ORGAN TRANSPLANTATION” (VITAK B.V., priority 2012, published 2015).

What was measured:
Matrix Gla-Protein (MGP) = test: Circulating desphospho-uncarboxylated MGP (dp-ucMGP) / MGP carboxylation in vitamin K intervention studies; format: in vivo, human; conditions: for circulating dp-ucMGP at start: baseline
Description: (§1) Blood was drawn after an 8-12 h overnight fasting period to prepare serum and citrated plasma, which were subsampled and frozen at −80° C. until use. Renal allograft function was assessed as the 24 h urinary creatinine clearance (CrCl), i.e. the 24 h urinary creatinine excretion divided by the serum creatinine concentration. Vitamin K status was assessed from plasma dp-ucMGP concentrations as described elsewhere {Cranenburg EC et al. Thromb. Haemostas. 104 (2010) 811-822} and from ucOC using a commercial dual antibody ELISA test kit (Takara Shuzo Co. Ltd., Otsu, Shiga, Japan). An in-house control serum pool was run on all ELISA plates. The primary end-points of this study were death-censored graft failure and change in kidney function. Death-censored graft failure was defined as return to dialysis therapy or re-transplant. Change in kidney function was defined as estimated GFR (eGFR) at baseline subtracted by eGFR at the last follow-up visit, divided by time from baseline to follow-up and expressed in millilitres per minute per 1.73 m^2 per year. […] Calculating a slope instead of a change in eGFR therefore will underestimate a patient's true kidney function decrease. For patients who died with a functioning graft (n=78), eGFR at follow-up was defined as kidney function at the last visit to the outpatient clinic before death, and for patients with graft failure (n=42), eGFR at follow-up was defined as the eGFR at the last visit to the outpatient clinic before starting dialysis therapy or re-transplant. There was no loss to follow-up.
(§2) Recommended doses of vitamin K for treating transplant patients. […] On top of this, chronic kidney disease (CKD) patients are known to have much more pronounced vitamin K insufficiency than healthy subjects {Schlieper G et al. J. Am. Soc. Nephrol., 22 (2011) 387-395}. Therefore, the estimated range for optimal effect is dependent on the disease state and may be higher than estimated from literature data. […] This was shown in archived samples from a vitamin K1-intervention study initially described in 2003 {Braam L A et al. Am. J. Sports Med. 31 (2003) 889-895}. […] This was shown in archived samples from a vitamin K1-intervention study initially described in 2003 {Braam L A et al. Calcif. Tissue Int. 73 (2003) 21-26}. During the first 6 months of the study, circulating ucOC in the vitamin K-treated group decreased from 4.2 ng/mL to 0.8 ng/mL, whereas in the control samples a non-significant increase was observed from 4.4 ng/mL to 4.7 ng/mL. […] 109 (2007) 3279-3283}.
(§3) the optimal dose for Gla-protein carboxylation in subjects free from CKD lies between 5 and 2,000 μg/day, preferably between 50 and 1,000 μg/day, more preferably between 100 and 1,000 μg/day and most preferably between 200 and 500 μg/day for subjects with baseline levels in the normal range. […] The decreases of circulating dp-ucMGP and ucOC are shown in FIG. 10. • Lower doses were tested in a number of small studies with a significant effect at 200 μg/day and a half-maximum effect at 500 μg/day.

osteocalcin (OC) [1] = conditions: cited from earlier work
[2] = in vivo; cited from earlier work
circulating OC and MGP = test: Gla-protein carboxylation (circulating OC and MGP) after vitamin K supplementation; format: in vivo, human
From the text: as §2, §3
the optimal dose for Gla-protein carboxylation in subjects free from kidney disease lies between 5 and 3,000 μg/day, preferably between 50 and 2,000 μg/day, more preferably between 100 and 1,000 μg/day and most preferably between 200 and 500 μg/day for subjects with baseline levels in the normal range. […] Treatment should be guided by the circulating levels of dp-ucMGP, ucOC, or uncarboxylated species of any other suitable Gla-protein. • MK-n: The long-chain menaquinones are selected from the group menaquinone-7, menaquinone-8, menaquinone-9, and menaquinone-10. The long half-life times of the long-chain menaquinones make that the optimal dose for Gla-protein carboxylation is lower than for vitamin K1 {Schurgers L J et al. Biochim. Biophys. Acta 1570 (2002) 27-32}. […] A clear dose-dependent increase of MGP carboxylation was found, for instance, between 45 μg/day and 360 μg/day {Westenfeld R et al. Am. J. Kidney Dis. 59 (2012) 186-195}.

osteocalcin (OC) [3] = test: Circulating uncarboxylated osteocalcin (ucOC) / OC carboxylation in vitamin K intervention studies; format: in vivo, human
Description: as §1
as §2, with “3279-3283}. […]” for “3279-3283}.”

Structure (SMILES) | circulating dp-ucMGP after treatment (Matrix Gla-Protein (MGP); K1 1,000 μg/day (FIG. 8)) | circulating dp-ucMGP at start (Matrix Gla-Protein (MGP); K1 1,000 μg/day group) | circulating dp-ucMGP after treatment (Matrix Gla-Protein (MGP); K1 10,000 μg/day (FIG. 7)) | circulating dp-ucMGP at start (Matrix Gla-Protein (MGP); K1 10,000 μg/day group) | effect on the carboxylation degree of circulating OC (osteocalcin (OC) [1]; K1 140 μg/day) | circulating half-life time [2] | OC and MGP carboxylation (circulating OC and MGP; K1 1,000 μg/day, healthy volunteers) | carboxylation of circulating OC and MGP (circulating OC and MGP; K1 10,000 μg/day, archived samples of vitamin K1-intervention study) | circulating ucOC at start (osteocalcin (OC) [3]; K1 1,000 μg/day group, baseline) | circulating ucOC after treatment (osteocalcin (OC) [3]; K1 1,000 μg/day, first 6 months of the study) | circulating ucOC level at start (osteocalcin (OC) [3]; K1 10,000 μg/day group, baseline of 2-year study) | circulating ucOC level after treatment (osteocalcin (OC) [3]; K1 10,000 μg/day, first 6 months of 2-year study, background = buffer values) | circulating dp-ucMGP change (Matrix Gla-Protein (MGP); MK-4 45,000 μg/day (FIG. 9)) | carboxylation of circulating OC (osteocalcin (OC) [1]; MK-4 45,000 μg/day taken for 6 months) | dose with half-maximum effect on Gla-protein carboxylation (circulating OC and MGP; lower doses, small studies) | dose with significant effect on Gla-protein carboxylation (circulating OC and MGP; lower doses, small studies)
CC1=C(C/C=C(\C)CCC[C@H](C)CCC[C@H](C)CCCC(C)C)C(=O)c2ccccc2C1=O [K1, phylloquinone] | 112 pM | 389 pM | 23 pM | 182 pM | less pronounced but statistically significant effect | around 1.5 h | substantial increase | more than 95% | 4.2 ng/mL | 0.8 ng/mL | 4.6 ng/mL | not different from background | – | – | – | –
CC(C)=CCC/C(C)=C/CC/C(C)=C/CC/C(C)=C/CC1=C(C)C(=O)c2ccccc2C1=O [MK-4, menaquinone-4] | – | – | – | – | – | 1 h | – | – | – | – | – | – | decrease | complete carboxylation | 500 µg/day | 200 µg/day
